Results reported in patent US4476125A, “Benzobisoxazinetetrones and anti-allergic use thereof” (USV Pharmaceutical Corporation, priority 1983, dated 1984).
pIC50: −log10 of the molar value.

Experiments:
[1] = system: rat mast cells; assay: Rat Mast Cell (RMC) histamine release from passively sensitized rat mast cells; type: cell-based; settings: passively sensitized in vitro with anti-ovalbumin serum, antigen-induced histamine release, 0.1% DMSO, read-out: RMC I50
Excerpt: The compounds of the present invention are useful as intermediates for making benzo-bis-oxazoles. Further, the compounds of the present invention are useful as antiallergic agents as evidenced by their activity as blockers of histamine release from passively sensitized rat mast cells (RMC) and in the rat passive cutaneous test (PCA). A brief description of the test methods follow.
Rat Mast Cell (RMC) Studies--(Based on E. Kusner, B. Dabnick, D. F. Herzig, J. Pharm. Exp., Ther., 1973, 184, 41.) Rat mast cells were passively sensitized in vitro with anti-ovalbumin serum. Following a 15 minute incubation, the spontaneous histamine release (SR) in the absence of antigent and AIR (in the presence of antigen) were measured fluorometrically with a Technicon Auto Analyzer®.

[2] = system: rat passive cutaneous anaphylaxis (blued wheal area); assay: Passive cutaneous anaphylaxis in the rat (PCA); type: in vivo, rat (male, Sprague Dawley); settings: 125 mg/kg p.o.; antigen challenge ten minutes after oral administration
Excerpt: Passive Cutaneous Anaphalixis in the Rat (Based on I. Mota, Life Science, 1963, F 465; and Z. Ovary and O. G. Bier, Proc. Soc. Exp. Biol. and Med., 1952, 81, 584)--Male, Sprague Dawley rats were sensitized at dorsal sites by intradermal injection of syngeneic serum containing IgE anti-ovalbumin.Forty-eight hours later, groups of four rats were given either vehicle (1% methylcellulose) or graded does of compound. Either ten minutes after oral drug administration or five minutes after i.p. drug dosing, rats were challenged intravenously with antigen (ovalbumin) in 1% Evans blue dye. Thirty minutes after antigen challenge, the rats were sacrificed by cervical dislocations, the dorsal skins were reflected and blued wheal areas measured. Mean values±S.D. for wheal areas in control and drug-treated groups were detemined and compared statistically using Student's t-test.

Structure (SMILES) | pIC50 [1] | PCA % Inhibition [2] [%]
O=c1[nH]c2cc3[nH]c(=O)c(=O)oc3cc2oc1=O [Example 1F, Benzo[1,2-b;5,4-b]-bis-[1,4]oxazine-2,3,7,8-tetrone] | 5.52 | 26
O=c1[nH]c2cc3oc(=O)c(=O)[nH]c3cc2oc1=O [Example 2E, Benzo(1,2-b;4,5-b)-bis-[1,4]oxazine-2,3,7,8-tetrone] | 5.92 | 42
